The test concerns the target unphosphorylated-BTK kinase domain (UP-BTK), GST-tagged human BTK (389-659aa) (Homo sapiens (Human), UniProt Q06187). Description: BTK kinase Lanthascreen binding assay. Particulars: pIC50 = negative log of the IC50 in molar; 60 minutes incubation, 50 nM Tracer 236. The procedure, abridged:
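Lanthascreen competition binding; test compound vs fluorescent tracer on unphosphorylated BTK. Output: pIC50 (−log IC50, M).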

unphosphorylated-BTK kinase domain (UP-BTK), GST-tagged human BTK (389-659aa), sequence (Q06187 389-659): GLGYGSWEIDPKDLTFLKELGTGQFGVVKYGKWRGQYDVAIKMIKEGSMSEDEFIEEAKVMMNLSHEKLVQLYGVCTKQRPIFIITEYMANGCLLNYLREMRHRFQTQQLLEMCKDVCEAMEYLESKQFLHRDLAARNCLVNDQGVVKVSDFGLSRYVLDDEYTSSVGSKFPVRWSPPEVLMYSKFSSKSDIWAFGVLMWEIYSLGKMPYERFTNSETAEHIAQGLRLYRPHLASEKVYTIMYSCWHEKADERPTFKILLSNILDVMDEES

With `Cc1cc(Oc2ccccc2)ccc1N1C(=O)Nc2c(C(=O)N[C@@H]3CCCN(C(=O)C4COC4)C3)sc3nccc1c23` [Example 136, (R)-5-(2-Methyl-4-phenoxyphenyl)-N-(1-(oxetane-3-carbonyl)piperidin-3-yl)-4-oxo-4,5-dihydro-3H-1-thia-3,5,8-triazaacenaphthylene-2-carboxamide], the “BTK_I_binding pIC50” value is recorded as 7.1.
As for `C=CC(=O)N1CC[C@@H](N(C)C(=O)c2sc3nccc4c3c2NC(=O)N4c2ccc(Oc3ccccc3)cc2C)C1` [Example 137, (R)—N-(1-Acryloylpyrrolidin-3-yl)-N-methyl-5-(2-methyl-4-phenoxyphenyl)-4-oxo-4,5-dihydro-3H-1-thia-3,5,8-triazaacenaphthylene-2-carboxamide], the “BTK_I_binding pIC50” value is 6.6.
The value for `Cc1cc(Oc2ccccc2)ccc1N1C(=O)Nc2c(C(=O)N[C@H]3CNC[C@H](F)C3)sc3nccc1c23` [Example 138, N-((3R,5R)-5-fluoropiperidin-3-yl)-5-(2-methyl-4-phenoxyphenyl)-4-oxo-4,5-dihydro-3H-1-thia-3,5,8-triazaacenaphthylene-2-carboxamide] was 7.0; that for `COCCC(=O)N1C[C@H](NC(=O)c2sc3nccc4c3c2NC(=O)N4c2ccc(Oc3ccccc3)cc2C)[C@@H](O)C1` [Example 139, N-((3S,4S)-4-Hydroxy-1-(3-methoxypropanoyl)pyrrolidin-3-yl)-5-(2-methyl-4-phenoxyphenyl)-4-oxo-4,5-dihydro-3H-1-thia-3,5,8-triazaacenaphthylene-2-carboxamide] was 7.2; that for `CC(C)=C(C#N)C(=O)N1CCC[C@@H](NC(=O)c2sc3nccc4c3c2NC(=O)N4c2ccc(Oc3ccccc3)cc2C)C1` [Example 140, (R)—N-(1-(2-Cyano-3-methylbut-2-enoyl)piperidin-3-yl)-5-(2-methyl-4-phenoxyphenyl)-4-oxo-4,5-dihydro-3H-1-thia-3,5,8-triazaacenaphthylene-2-carboxamide] was 6.7.
With `CCN1CC[C@@H](NC(=O)c2sc3nccc4c3c2NC(=O)N4c2ccc(Oc3ccccc3)cc2C)C1` [Example 141, (R)—N-(1-Ethylpyrrolidin-3-yl)-5-(2-methyl-4-phenoxyphenyl)-4-oxo-4,5-dihydro-3H-1-thia-3,5,8-triazaacenaphthylene-2-carboxamide] the figure was 6.8; with `COC[C@H](OC)C(=O)N1CCC[C@@H](NC(=O)c2sc3nccc4c3c2NC(=O)N4c2ccc(Oc3ccccc3)cc2C)C1` [Example 142, N—((R)-1-((S)-2,3-Dimethoxypropanoyl)piperidin-3-yl)-5-(2-methyl-4-phenoxyphenyl)-4-oxo-4,5-dihydro-3H-1-thia-3,5,8-triazaacenaphthylene-2-carboxamide], 7.2; with `COC[C@@H](O)C(=O)N1CCC[C@@H](NC(=O)c2sc3nccc4c3c2NC(=O)N4c2ccc(Oc3ccccc3)cc2C)C1` [Example 143, N—((R)-1-((R)-2-Hydroxy-3-methoxypropanol)piperidin-3-yl)-5-(2-methyl-4-phenoxyphenyl)-4-oxo-4,5-dihydro-3H-1-thia-3,5,8-triazaacenaphthylene-2-carboxamide], 7.3.
With `C=C(C(=O)N1CCC[C@@H](NC(=O)c2sc3nccc4c3c2NC(=O)N4c2ccc(Oc3ccccc3)cc2C)C1)C(F)(F)F` [Example 144, (R)-5-(2-Methyl-4-phenoxyphenyl)-4-oxo-N-(1-(2-(trifluoromethyl)acryloyl)piperidin-3-yl)-4,5-dihydro-3H-1-thia-3,5,8-triazaacenaphthylene-2-carboxamide], the “BTK_I_binding pIC50” value is given as 7.5.
With `Cc1cc(Oc2ccccc2)ccc1N1C(=O)Nc2c(C(=O)N[C@@H]3CCCN(C(=O)[C@@H]4CCN(C)C4)C3)sc3nccc1c23` [Example 145, 5-(2-Methyl-4-phenoxyphenyl)-N—((R)-1-((R)-1-methylpyrrolidine-3-carbonyl)piperidin-3-yl)-4-oxo-4,5-dihydro-3H-1-thia-3,5,8-triazaacenaphthylene-2-carboxamide] the figure was 7.0.
As for `Cc1cc(Oc2ccccc2)ccc1N1C(=O)Nc2c(C(=O)N[C@@H]3CCCN(C(=O)CCS(C)(=O)=O)C3)sc3nccc1c23` [Example 146, (R)-5-(2-Methyl-4-phenoxyphenyl)-N-(1-(3-(methylsulfonyl)propanoyl)piperidin-3-yl)-4-oxo-4,5-dihydro-3H-1-thia-3,5,8-triazaacenaphthylene-2-carboxamide], the “BTK_I_binding pIC50” value is 7.4.
The value for `Cc1ccccc1Oc1ccc(N2C(=O)Nc3c(C(=O)N[C@@H]4CCCN(C)C4)sc4nccc2c34)c(C)c1` [Example 148, (R)-5-(2-Methyl-4-(o-tolyloxy)phenyl)-N-(1-methylpiperidin-3-yl)-4-oxo-4,5-dihydro-3H-1-thia-3,5,8-triazaacenaphthylene-2-carboxamide] was 6.9; that for `Cc1cc(Oc2ccccc2)ccc1N1C(=O)Nc2c(C(=O)N[C@@H]3CCN(C4CC4)C3)sc3nccc1c23` [Example 149, (R)—N-(1-Cyclopropylpyrrolidin-3-yl)-5-(2-methyl-4-phenoxyphenyl)-4-oxo-4,5-dihydro-3H-1-thia-3,5,8-triazaacenaphthylene-2-carboxamide] was 6.8; that for `Cc1cc(Oc2ccccc2)ccc1N1C(=O)Nc2c(C(=O)N[C@@H]3CCCN(C(=O)/C(C#N)=C/C(C)(C)N4CCCCC4)C3)sc3nccc1c23` [Example 150, (R,E)-N-(1-(2-Cyano-4-methyl-4-(piperidin-1-yl)pent-2-enoyl)piperidin-3-yl)-5-(2-methyl-4-phenoxyphenyl)-4-oxo-4,5-dihydro-3H-1-thia-3,5,8-triazaacenaphthylene-2-carboxamide] was 6.9.
With `Cc1cc(Oc2ccccc2)ccc1N1C(=O)Nc2c(C(=O)N[C@@H]3CCCN(C(=O)CN)C3)sc3nccc1c23` [Example 151, (R)—N-(1-(2-Aminoacetyl)piperidin-3-yl)-5-(2-methyl-4-phenoxyphenyl)-4-oxo-4,5-dihydro-3H-1-thia-3,5,8-triazaacenaphthylene-2-carboxamide] the figure was 7.2; with `Cc1cc(Oc2ccccc2)ccc1N1C(=O)Nc2c(C(=O)N[C@@H]3CCCN(C(=O)/C(C#N)=C/C(C)(C)NC4CC4)C3)sc3nccc1c23` [Example 152, (R,E)-N-(1-(2-Cyano-4-(cyclopropylamino)-4-methylpent-2-enoyl)piperidin-3-yl)-5-(2-methyl-4-phenoxyphenyl)-4-oxo-4,5-dihydro-3H-1-thia-3,5,8-triazaacenaphthylene-2-carboxamide], 7.3.
The value for `Cc1cc(Oc2ccccc2)ccc1N1C(=O)Nc2c(C(=O)N[C@H]3CNC[C@H]3F)sc3nccc1c23` [Example 154, N-((3S,4R)-4-Fluoropyrrolidin-3-yl)-5-(2-methyl-4-phenoxyphenyl)-4-oxo-4,5-dihydro-3H-1-thia-3,5,8-triazaacenaphthylene-2-carboxamide] was 7.2; that for `COC(C)CC(=O)N1CCC[C@@H](NC(=O)c2sc3nccc4c3c2NC(=O)N4c2ccc(Oc3ccccc3)cc2C)C1` (stereo partly drawn) [Example 155, N-((3R)-1-(3-Methoxybutanoyl)piperidin-3-yl)-5-(2-methyl-4-phenoxyphenyl)-4-oxo-4,5-dihydro-3H-1-thia-3,5,8-triazaacenaphthylene-2-carboxamide] was 7.0.
